Measured values from US20090298752A1, “APLIDINE TREATMENT OF CANCERS” (PHARMA MAR, S.A., priority 1999, published 2009).
Entries after “also recorded” stand apart in the source; their conditions may differ.

Columns and labels:
[1] = stability testing of aplidine and lyophilised dosage form; format: physicochemical; conditions: solubilised; heat and light stress testing
Protocol: In a currently preferred embodiment freeze-drying was performed from a 500 mg/mL solution of aplidine in 40% (v/v) tert-butanol in Water for Injection (WfI) containing 25 mg/mL D-mannitol as bulking agent.

[2] = test system: Hs746T gastric tumour cells; experiment: in vitro activity on gastric tumour cells; format: cell-based, human
Protocol: (§1) Different model systems were evaluated to provide the basis for further clinical work. Selective antitumour activities were seen against two histologically different solid tumours: human gastric and prostate carcinomas. Potent in vitro activity to primary gastric tumour specimens or Hs746T gastric tumour cells is evident with IC30 values of 146 and 450 pM, respectively. […] activities were evaluated in nude rodents using sc implanted tumour fragments or hollow fibres (HF) containing tumour cells.

B 16 melanoma = conditions: mice; cited from earlier work
[3] = test system: primary gastric tumour specimens; experiment: in vitro activity on primary gastric tumour specimens; format: cell-based, human
Protocol: as §1

VEGF = VEGF secretion from IGROV-1; format: cell-based, human
[4] = Phase I, 1 h weekly infusion x3 q4wk: toxicity and pharmacokinetics; format: in vivo, human; set-up: CL: unit not given here
Source text: Adult patients with advanced disease, PS<3, and appropriate organ function are considered eligible; patients receive aplidine wk×3/q^4 wks. 24 solid tumour patients have been entered: median (m) age 55 y, m ECOG=1, 15/24 patients treated with =>2 treatment cycles. Seven dose levels (DL) from 133 mcg/m^2/wk to 2700 mcg/m^2/wk have been assessed: 102 infusions are evaluable for toxicity (tox). […] At 2700 mcg/m^2/wk (4 pts), 1 had G3 hiperbilirrubinemia that has been considered to be dose limiting and therefore 2700 mcg/m^2/wk DL is being expanded. […] Plasma levels >1 ng/ml 24 hours after infusion are reachable form 1800 mcg/m^2/wk. […] Aplidine appears to be clinically feasible at pharmacologically appropriate dose levels.
Aplidine was administered as a 1 hour weekly×3 every four weeks

VEGF mRNA [5] = experiment: VEGF mRNA levels in IGROV-1; format: cell-based, human
VEGF mRNA [6] = experiment: VEGF mRNA in MOLT-4 cells (Rnase protection); format: cell-based, human
human bladder cancer = human bladder cancer animal models; format: in vivo; conditions: complete remissions in some animal models
Source text: Bladder tumours are one type of tumour over-expressing the receptor to Epithelial Growth Factor (EGF), which leads to upregulation of VEGF and the VEGF receptor. Binding of VEGF to its receptor is believed to lead to cell growth stimulation by means of transitory local calcium ion changes among other mechanisms for signalling. A compound inhibiting VEGF action is expected to be inhibitory to such tumours.

gastric tumours = conditions: 1.25 mg/kg; cited from earlier work
ornithine decarboxylase = biological target: T1, ornithine decarboxylase (Homo sapiens, UniProt P11926); conditions: all three cell lines; cited from earlier work
T1 construct: endogenous in cells; host or cells: CT-1, CT-2 and HT-29 colon cell lines

[7] = test system: substance P positive sensory neurones; experiment: fluorescent viability stain with immunocytochemistry; format: cell-based; conditions: ethidium homodimer and calcein AM
Source text: (§2) The motor neuron sensitivity may help to explain the type II muscle atrophy observed (as predicted) in a small group of patients where the AUC concentration of the drug is elevated due to diminished excretion.

[8] = test system: brain cells (neurons and astrocytes); experiment: as above; format: cell-based; conditions: ethidium homodimer and calcein AM
Source text: as §2

[9] = test system: motor (choline acetyl transferatse positive) neurons in the spinal cord; experiment: as above; format: cell-based; conditions: ethidium homodimer and calcein AM
Source text: as §2

cell cycle = conditions: flow cytometric analysis; cited from earlier work
VEGF promoter = VEGF promoter activity, luciferase/renilla reporter gene system; format: cell-based; conditions: FIG. 13
AP-1 = experiment: gel retardation assay, transcription factor binding; format: biochemical; conditions: nuclear extracts incubated with aplidine, 60 min
Protocol: Nuclear extracts were incubated with different aplidine concentrations and labelled oligonucleotides for 60 min. Using gel retardation assay the binding of HIF-1 or AP-1 has been monitored.

Gastric MRI-H254 = experiment: sc hollow fibre (HF), gastric tumour cells, rat; format: in vivo; conditions: 24 hr.iv inf., 0.7 mg/kg
Protocol: as §1
Follow-up studies necessitated using rats for iv infusions. With this variation, a 24 hr iv infusion schedule produced similar activities against HF gastric (20%) and HF prostate (31%) tumour cells. Cytotoxicity was also found using a 5 day iv infusion schedule against HF prostate tumour cells (33%).

MOLT-4 = experiment: apoptosis in leukaemia cell line; format: cell-based, human
[10] = 3-compartment model, preliminary

T1 sequence (P11926 whole entry): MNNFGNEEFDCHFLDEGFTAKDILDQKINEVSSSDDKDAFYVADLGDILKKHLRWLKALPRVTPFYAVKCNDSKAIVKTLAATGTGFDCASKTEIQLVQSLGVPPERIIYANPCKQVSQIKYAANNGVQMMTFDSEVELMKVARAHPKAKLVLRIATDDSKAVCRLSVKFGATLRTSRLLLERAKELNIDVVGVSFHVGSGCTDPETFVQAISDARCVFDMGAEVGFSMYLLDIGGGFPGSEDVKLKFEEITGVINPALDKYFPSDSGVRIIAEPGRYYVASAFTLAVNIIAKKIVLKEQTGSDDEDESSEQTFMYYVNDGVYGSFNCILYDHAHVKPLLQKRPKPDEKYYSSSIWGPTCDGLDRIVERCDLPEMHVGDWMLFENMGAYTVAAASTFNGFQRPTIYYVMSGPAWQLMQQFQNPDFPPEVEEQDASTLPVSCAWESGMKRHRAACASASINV

Substance: aplidine
- degradation [1]: substantial degradation
- IC30 [2]: 0.45 nM
- activity against implanted tumour (B 16 melanoma): active
- IC30 [3]: 0.146 nM
- secretion of VEGF, in words (VEGF): reduce the secretion of VEGF
- initial phase median half-life [4, 10]: 2.4 min
- intermediate phase median half-life [4, 10]: 1.4 h
- terminal phase median half-life [4, 10]: 20.7 h
- Hypertension G3 (worst toxicity per patient) ([4]; 133 mcg/m^2/wk x3, 3 patients): (1)
- Transaminitis G2 (worst toxicity per patient) ([4]; 133 mcg/m^2/wk x3, 3 patients): 1
- Alk. Phos. G3 (worst toxicity per patient) ([4]; 266 mcg/m^2/wk x3, 3 patients): (1)
- Injection site reaction G2 (worst toxicity per patient) ([4]; 266 mcg/m^2/wk x3, 3 patients): 1
- Asthenia G2 (worst toxicity per patient) ([4]; 532 mcg/m^2/wk x3, 3 patients): 1
- Transaminitis G3 (worst toxicity per patient) ([4]; 532 mcg/m^2/wk x3, 3 patients): (1)
- Asthenia G2 (worst toxicity per patient) ([4]; 800 mcg/m^2/wk x3, 3 patients): 1(1)
- Asthenia G3 (worst toxicity per patient) ([4]; 800 mcg/m^2/wk x3, 3 patients): 1(1)
- CPK elevation G1 (worst toxicity per patient) ([4]; 800 mcg/m^2/wk x3, 3 patients): 1
- Hypertension G1 (worst toxicity per patient) ([4]; 800 mcg/m^2/wk x3, 3 patients): 1
- Injection site reaction G2 (worst toxicity per patient) ([4]; 800 mcg/m^2/wk x3, 3 patients): 1
- Nausea/vomiting G2 (worst toxicity per patient) ([4]; 800 mcg/m^2/wk x3, 3 patients): 3
- Transaminitis G2 (worst toxicity per patient) ([4]; 800 mcg/m^2/wk x3, 3 patients): 1
- Asthenia G2 (worst toxicity per patient) ([4]; 1200 mcg/m^2/wk x3, 4 patients): 3
- Injection site reaction G2 (worst toxicity per patient) ([4]; 1200 mcg/m^2/wk x3, 4 patients): 1
- Myalgia G3 (worst toxicity per patient) ([4]; 1200 mcg/m^2/wk x3, 4 patients): (1)
- Alk. Phos. G2 (worst toxicity per patient) ([4]; 1800 mcg/m^2/wk x3, 4 patients): 1
- Asthenia G2 (worst toxicity per patient) ([4]; 1800 mcg/m^2/wk x3, 4 patients): 2
- Injection site reaction G2 (worst toxicity per patient) ([4]; 1800 mcg/m^2/wk x3, 4 patients): 1
- Nausea/vomiting G2 (worst toxicity per patient) ([4]; 1800 mcg/m^2/wk x3, 4 patients): 3
- Transaminitis G2 (worst toxicity per patient) ([4]; 1800 mcg/m^2/wk x3, 4 patients): 1
- G3 hiperbilirrubinemia (dose limiting) ([4]; 2700 mcg/m^2/wk (4 pts)): 1
- Asthenia G2 (worst toxicity per patient) ([4]; 2700 mcg/m^2/wk x3, 8 patients): 1(1)
- Asthenia G3 (worst toxicity per patient) ([4]; 2700 mcg/m^2/wk x3, 8 patients): 1(1)
- Injection site reaction G2 (worst toxicity per patient) ([4]; 2700 mcg/m^2/wk x3, 8 patients): 3
- Nausea/vomiting G2 (worst toxicity per patient) ([4]; 2700 mcg/m^2/wk x3, 8 patients): 2
- Transaminitis G2 (worst toxicity per patient) ([4]; 2700 mcg/m^2/wk x3, 8 patients): 1
- Bilirrubin G3 (worst toxicity per patient) ([4]; 2700 mcg/m^2/wk x3, 8 patients, footnote DLT): 1(1)^(2)
- CPK elevation G1 (worst toxicity per patient) ([4]; 3600 mcg/m^2/wk x3, 2 patients): 1
- clinically feasible dose ([4]; 1 hour infusion weekly with one week rest): ≤ 3600 mcg/m^2 every week
- haematological tox ([4]; Example 13, 102 infusions): No haematological tox
- CL ([4]; Example 13, median): 0.60
- m Vss ([4]; Example 13, median): 308 L/m^2
- m elimination half life ([4]; Example 13, median): 14.2 h
- Bone marrow toxicity ([4]; Example 17): has not been reported
- coefficient of variation of CL ([4]; Example 17, interpatient): 33%
- Vss ([4]; Example 17, median (quartiles)): 345 (220-398) L/m^2
- t ½ ([4]; Example 17, median (quartiles)): 15.8 (13.3-19.5) h
- plasma CL ([4]; Example 17, median, quartiles 288-407): 329 mL/min/m^2
- dose from which potentially therapeutic plasma levels are achievable ([4]; in vivo): ≥ 1200 μg/m^2
- Plasma levels 24 hours after infusion ([4]; reachable from 1800 mcg/m^2/wk): > 1 ng/mL
- mRNA levels of VEGF, in words (VEGF mRNA [5]): reduces the mRNA levels of VEGF
- half life of VEGF mRNA, in words (VEGF mRNA [6]): does not change the half life of VEGF mRNA
- levels of VEGF mRNA, in words (VEGF mRNA [6]; 20 nM aplidine): strong decrease; also recorded: decrease in the mRNA encoding for VEGF
- activity on human bladder cancer (human bladder cancer): exceedingly high activity
- T/C (gastric tumours): 14%
- ornithine decarboxylase activity (ornithine decarboxylase): decreased ornithine decarboxylase activity
- toxicity at approximately 1 μM [7]: but not substance P positive sensory neurones
- toxic concentration [8]: approximately 1 μM
- toxic concentration [9]: approximately 1 μM
- cell cycle pertubations (cell cycle): did not induce any apparent cell cycle pertubations
- promoter activity of VEGF, in words (VEGF promoter): does not affect the promoter activity of VEGF
- binding of AP-1 to consensus DNA sequence (AP-1): does not block the binding; also recorded: did not change the ability
- Activity (% T/C.) (Gastric MRI-H254): 20 % T/C
- apoptosis (MOLT-4): strong apoptosis
